pEC50: −log10 of the molar value. Read-outs that look alike come from different tables or passages of the source.
Legend:
VZV-ORF57-Luc [1] = assay: microbe, parasite or virus in culture; conditions: Human alphaherpesvirus 3, ARPE-19, cell-free VZV-ORF57-Luc, ARPE-19 cells, 72 hpi, bioluminescence imaging
VZV-ORF57-Luc [2] = conditions: for pEC50: cell-free VZV-ORF57-Luc, ARPE-19 cells, 72 hpi, bioluminescence imaging
in vitro = conditions: human
[3] = Neutral red dye uptake cytotoxicity assay in ARPE-19 cells; conditions: human
VZV = conditions: cited from earlier work
VZV-ORF57-ΔTKTS = assay: microbe, parasite or virus in culture; assay type: cell-based, Varicella zoster virus
VZV-ORF57-ΔTK = assay: microbe, parasite or virus in culture; assay type: cell-based, Varicella zoster virus
VZV-ORF57-Luc [4] = assay: microbe, parasite or virus in culture; assay type: cell-based, Varicella zoster virus
VZV-ORF57-ΔTS = assay: microbe, parasite or virus in culture; assay type: cell-based, Varicella zoster virus
ARPE-19 cells = assay: Neutral red dye uptake cytotoxicity assay in ARPE-19 cells; conditions: 72 h, neutral red assay
[5] = selectivity index = CC50/EC50, ARPE-19 cells
[6] = Human alphaherpesvirus 3, ARPE-19
[7] = cell-associated virus, ARPE-19 cells
[8] = cell-associated VZV-ORF57-ΔTKTS, ARPE-19 cells, read-out: EC50
[9] = cell-associated VZV-ORF57-ΔTK, ARPE-19 cells, read-out: EC50
[10] = cell-associated VZV-ORF57-Luc, ARPE-19 cells, read-out: EC50
[11] = cell-associated VZV-ORF57-ΔTS, ARPE-19 cells, read-out: EC50

| Compound | pEC50 (VZV-ORF57-Luc [1]) | SI (CC50/EC50) (VZV-ORF57-Luc [2]) | SI (CC50/EC50) (VZV-ORF57-Luc [2]; [5]) | CC50 at 72 h [3] | further results |
| --- | --- | --- | --- | --- | --- |
| CC(C)OC(=O)C(C)NP(=O)(OC[C@H]1OC[C@@H](n2cc(/C=C/Br)c(=O)[nH]c2=O)O1)Oc1ccccc1 (stereo in doubt) [Isopropyl ((((2S,4S)-4-(5-((E)-2-Bromovinyl)-2,4-dioxo-3,4-dihydropyrimidin-1(2H)-yl)-1,3-dioxolan-2-yl)methoxy)(phenoxy)phosphoryl)-L-alaninate] | 5.77 | >206 |  |  | CC50 (in vitro): > 100 µM |
| CC(C)OC(=O)C(Cc1ccccc1)NP(=O)(OC[C@H]1OC[C@@H](n2cc(/C=C/Br)c(=O)[nH]c2=O)O1)Oc1ccccc1 (stereo in doubt) [Isopropyl ((((2S,4S)-4-(5-((E)-2-Bromovinyl)-2,4-dioxo-3,4-dihydropyrimidin-1(2H)-yl)-1,3-dioxolan-2-yl)methoxy)(phenoxy)phosphoryl)-L-phenylalaninate] | 5.82 | 61 | 61 |  | CC50 at 72 h (in vitro): 93.7 µM |
| CC(C)(N)C(=O)OC[C@H]1OC[C@@H](n2cc(/C=C/Br)c(=O)[nH]c2=O)O1.Cl [L-BHDU-2-aminoisobutyric acid (24), L-BHDU-5′-O-2-aminoisobutyric Acid Ester Hydrochloride] | 7.41 | >2597 | >2597 | > 100 µM |  |
| CC(C)[C@H](N)C(=O)OC[C@H]1OC[C@@H](n2cc(/C=C/Br)c(=O)[nH]c2=O)O1.Cl [L-BHDU-D-valine (18), L-BHDU-5′-O-D-valyl Ester Hydrochloride] | 6.85 | >709 | >709 | > 100 µM | pEC50 (VZV-ORF57-Luc [2]): 6.85 |
| C[C@@H](N)C(=O)OC[C@H]1OC[C@@H](n2cc(/C=C/Br)c(=O)[nH]c2=O)O1.Cl [L-BHDU-L-alanine (15), L-BHDU-5′-O-L-alanyl Ester Hydrochloride] | 7.47 | >2959 | >2959 | > 100 µM |  |
| Cl.NC(=O)CC[C@H](N)C(=O)OC[C@H]1OC[C@@H](n2cc(/C=C/Br)c(=O)[nH]c2=O)O1 [L-BHDU-L-glutamine (23), L-BHDU-5′-O-L-glutamine Ester Hydrochloride] | 6.90 | >794 | >794 | > 100 µM |  |
| CC[C@H](C)[C@H](N)C(=O)OC[C@H]1OC[C@@H](n2cc(/C=C/Br)c(=O)[nH]c2=O)O1.Cl [L-BHDU-L-isoleucine (21), L-BHDU-5′-O-L-isoleucine Ester Hydrochloride] | 7.18 | >1520 | >1520 | > 100 µM |  |
| CC(C)C[C@H](N)C(=O)OC[C@H]1OC[C@@H](n2cc(/C=C/Br)c(=O)[nH]c2=O)O1.Cl [L-BHDU-L-leucine (20), L-BHDU-5′-O-L-leucine Ester Hydrochloride] | 7.38 | >2415 | >2415 | > 100 µM |  |
| Cl.NCCCC[C@H](N)C(=O)OC[C@H]1OC[C@@H](n2cc(/C=C/Br)c(=O)[nH]c2=O)O1 [L-BHDU-L-lysine (25), L-BHDU-5′-O-L-lysine Ester Hydrochloride] | 7.39 |  | >2481 | > 100 µM |  |
| Cl.N[C@H](Cc1ccccc1)C(=O)OC[C@H]1OC[C@@H](n2cc(/C=C/Br)c(=O)[nH]c2=O)O1 [L-BHDU-L-phenylalanine (16), L-BHDU-5′-O-L-phenylalanyl Ester Hydrochloride] | 7.55 | >3484 | >3484 | > 100 µM | pEC50 (VZV-ORF57-Luc [2]): 7.54; SI (CC50/EC50) (VZV-ORF57-Luc [2]; selectivity index = CC50/EC50, ARPE-19 cells, listed as 16): > 3484 |
| Cl.O=C(OC[C@H]1OC[C@@H](n2cc(/C=C/Br)c(=O)[nH]c2=O)O1)[C@@H]1CCCN1 [L-BHDU-L-proline (22), L-BHDU-5′-O-L-proline Ester Hydrochloride] | 7.29 | >1934 | >1934 | > 100 µM |  |
| Cl.N[C@@H](Cc1c[nH]c2ccccc12)C(=O)OC[C@H]1OC[C@@H](n2cc(/C=C/Br)c(=O)[nH]c2=O)O1 [L-BHDU-L-tryptophan (19), L-BHDU-5′-O-L-tryptophan Ester Hydrochloride] | 7.19 | >1550 | >1550 | > 100 µM |  |
| Cl.N[C@@H](Cc1ccc(O)cc1)C(=O)OC[C@H]1OC[C@@H](n2cc(/C=C/Br)c(=O)[nH]c2=O)O1 [L-BHDU-L-tyrosine (26), L-BHDU-5′-O-L-tyrosine Ester Hydrochloride] | 6.92 | >826 | >826 | > 100 µM |  |
| Cl.NCC(=O)OC[C@H]1OC[C@@H](n2cc(/C=C/Br)c(=O)[nH]c2=O)O1 [L-BHDU-glycine (14), L-BHDU-5′-O-glycyl Ester Hydrochloride] | 7.33 | >2132 | >2132 | > 100 µM |  |
| CC(C)[C@H](N)C(=O)OCCOCn1cnc2c(=O)[nH]c(N)nc21 [VACV, valacyclovir] |  |  |  |  | effect on VZV spread (VZV; 120 mg/kg/day, SCID-hu mouse): no effect; effect on VZV replication (VZV; SCID-hu mice): did not affect VZV replication |
| Nc1nc2c(ncn2COCCO)c(=O)[nH]1 [acyclovir (ACV), acyclovir, reference compound] |  |  |  | > 100 µM |  |
| Nc1ccn(C[C@@H](CO)OCP(=O)(O)O)c(=O)n1 [cidofovir (CDV), cidofovir, reference compound] | 6.32 |  | >208 | > 100 µM | pEC50 (VZV-ORF57-ΔTKTS; [6]): 5.98; activity against VZV-ORF57-ΔTKTS (in words) (VZV-ORF57-ΔTKTS; [7]): effective; pEC50 (VZV-ORF57-ΔTK; [6]): 6.38; activity against VZV-ORF57-ΔTK (in words) (VZV-ORF57-ΔTK; [7]): effective; pEC50 (VZV-ORF57-Luc [4]; [6]): 6.43; pEC50 (VZV-ORF57-ΔTS; [6]): 8.00 |
| CC(C)(C)OC(=O)N[C@@H](Cc1ccc(O)cc1)C(=O)O [compound 27] |  | >2481 |  |  |  |
| Bis(POC) Prodrug of L-BHDU-MP [POC-L-BHDU-MP (47)] |  | >2915 | >2915 |  | pEC50 (VZV-ORF57-ΔTKTS; [8]): < 5.70; CC50 (ARPE-19 cells): > 100 µM; pEC50 (VZV-ORF57-Luc [2]): 7.46; pEC50 (VZV-ORF57-Luc [2]; listed as POC-L-BHDU-MP): 7.47; SI (CC50/EC50) (VZV-ORF57-Luc [2]; selectivity index = CC50/EC50, ARPE-19 cells, listed as POC-L-BHDU-MP): > 2915; pEC50 (VZV-ORF57-ΔTK; [9]): < 5.70; pEC50 (VZV-ORF57-Luc [4]; [10]): 7.40; pEC50 (VZV-ORF57-ΔTS; [11]): 8.08 |
| L-BHDU-5′-[(2-hexadecyloxyethyl)phosphate] [HDP-L-BHDU-MP (39)] |  | 35 | 35 |  | CC50 (ARPE-19 cells): 18.5 µM; pEC50 (VZV-ORF57-Luc [2]): 6.28; pEC50 (VZV-ORF57-Luc [2]; listed as 39): 6.28 |
| L-BHDU-5′-[(2-octadecyloxyethyl)phosphate] [ODE-L-BHDU-MP (38)] |  | 339 | 339 |  | pEC50 (VZV-ORF57-ΔTKTS; [8]): < 5.70; CC50 (ARPE-19 cells): 33.9 µM; pEC50 (VZV-ORF57-Luc [2]): 7.00; pEC50 (VZV-ORF57-ΔTK; [9]): < 5.70; fold more potent compared to ACV (VZV-ORF57-Luc [4]; cell-associated VZV-ORF57-Luc): 9 fold; pEC50 (VZV-ORF57-Luc [4]; [10]): 6.09; pEC50 (VZV-ORF57-ΔTS; [11]): 9.10 |

Source: article PMC10226046, “Prodrug Strategies for the Development of β-L-5-((E)-2-Bromovinyl)-1-((2S,4S)-2-(hydroxymethyl)-1,3-(dioxolane-4-yl))uracil (L-BHDU) against Varicella Zoster Virus (VZV)” (Journal of Medicinal Chemistry, 2023)
